Experimental data taken from ChEMBL document CHEMBL1201862, “PubChem BioAssay data set” (2004).
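A five-concentration, 48-hour dose response in 96-well plates underlies each endpoint, interpolated linearly between surrounding concentrations. At the GI50, growth is halved.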 Active and inactive are the calls of the source. No stated cut-off is given here; in the data, active = GI50 up to about 1.1 µM and inactive = higher.

Columns and labels:
Test in all cases: DTP human tumour cell line panel, 48 h
CCRF-CEM = system: CCRF-CEM
HCC 2998 = system: HCC 2998
786-0 = system: 786-0
OVCAR-5 = system: OVCAR-5
RXF 393 = system: RXF 393
OVCAR-4 = system: OVCAR-4
NCI-H522 = system: NCI-H522
M14 = system: M14
SNB-19 = system: SNB-19
DU-145 = system: DU-145
EKVX = system: EKVX
HOP-62 = system: HOP-62
KM12 = system: KM12
NCI-H23 = system: NCI-H23
A498 = system: A498
T47D = system: T47D
TK-10 = system: TK-10
NCI-H226 = system: NCI-H226
SK-MEL-2 = system: SK-MEL-2
LOX IMVI = system: LOX IMVI

Structure (SMILES) | GI50 (CCRF-CEM) | GI50 (HCC 2998) | GI50 (786-0) | GI50 (OVCAR-5) | GI50 (RXF 393) | GI50 (OVCAR-4) | GI50 (NCI-H522) | GI50 (M14) | GI50 (SNB-19) | GI50 (DU-145) | GI50 (EKVX) | GI50 (HOP-62) | GI50 (KM12) | GI50 (NCI-H23) | GI50 (A498) | GI50 (T47D) | GI50 (TK-10) | GI50 (NCI-H226) | GI50 (SK-MEL-2) | GI50 (LOX IMVI)
Cc1ccc(/N=N/C(=N\c2ccc(Cl)cc2)c2ccc(N(CCC#N)CCC#N)cc2)cc1 | 21.6 µM (inactive) | 18.8 µM (inactive) | 52 µM (inactive) | > 100 µM (inactive) | 36.8 µM (inactive) | 51.4 µM (inactive) | 19.4 µM (inactive) | 30.8 µM (inactive) | > 100 µM (inactive) | 37.7 µM (inactive) | 22.9 µM (inactive) | 58.3 µM (inactive) | 19.1 µM (inactive) | 48.6 µM (inactive) | > 100 µM (inactive) | 12.5 µM (inactive) | 21.7 µM (inactive) | > 100 µM (inactive) | – | –
CCCCC(C#N)(OP1(=O)OC(c2ccccc2)C(C)N1C)c1ccccc1 (stereo not drawn) | 20.3 µM (inactive) | 15.1 µM (inactive) | 17.3 µM (inactive) | 17.1 µM (inactive) | 16.6 µM (inactive) | – | 17.2 µM (inactive) | 20.7 µM (inactive) | 19.2 µM (inactive) | 19.7 µM (inactive) | 22.5 µM (inactive) | 21.6 µM (inactive) | 19.6 µM (inactive) | 19.7 µM (inactive) | 18.9 µM (inactive) | 21.3 µM (inactive) | 18.9 µM (inactive) | – | 19.2 µM (inactive) | 18.9 µM (inactive)
CC1=C(\C=C/C(C)=C/C=C/C(C)=C/C=C/C=C(C)\C=C\C=C(C)/C=C/C2=C(C)CCCC2(C)C)C(C)(C)CCC1 | > 100 µM (inactive) | > 100 µM (inactive) | > 100 µM (inactive) | > 100 µM (inactive) | 33 µM (inactive) | > 100 µM (inactive) | 35.4 µM (inactive) | > 100 µM (inactive) | > 100 µM (inactive) | > 100 µM (inactive) | – | > 100 µM (inactive) | 39.6 µM (inactive) | 34.2 µM (inactive) | > 100 µM (inactive) | 19.5 µM (inactive) | > 100 µM (inactive) | > 100 µM (inactive) | > 100 µM (inactive) | > 100 µM (inactive)
COc1ccc(C2=Nn3c(nc4sc(C)c(C)c4c3=O)SC2)cc1 | > 100 µM (inactive) | > 100 µM (inactive) | > 100 µM (inactive) | > 100 µM (inactive) | > 100 µM (inactive) | > 100 µM (inactive) | > 100 µM (inactive) | – | – | > 100 µM (inactive) | > 100 µM (inactive) | > 100 µM (inactive) | > 100 µM (inactive) | > 100 µM (inactive) | > 100 µM (inactive) | > 100 µM (inactive) | > 100 µM (inactive) | > 100 µM (inactive) | – | > 100 µM (inactive)
O=C(OCc1ccccc1CN1CCOCC1)c1ccc(Br)cc1 | – | 46.5 µM (inactive) | > 100 µM (inactive) | 73.1 µM (inactive) | > 100 µM (inactive) | 43.5 µM (inactive) | 28.7 µM (inactive) | 52.8 µM (inactive) | > 100 µM (inactive) | > 100 µM (inactive) | 55.1 µM (inactive) | 72.3 µM (inactive) | – | 39.4 µM (inactive) | > 100 µM (inactive) | 43.5 µM (inactive) | > 100 µM (inactive) | > 100 µM (inactive) | 36 µM (inactive) | 55 µM (inactive)
CCOC(=O)c1ccc(C(=O)/C(C#N)=C2\CCCN2)[nH]1 | 63.2 µM (inactive) | > 100 µM (inactive) | > 100 µM (inactive) | > 100 µM (inactive) | 14.8 µM (inactive) | > 100 µM (inactive) | – | > 100 µM (inactive) | > 100 µM (inactive) | > 100 µM (inactive) | 11.7 µM (inactive) | > 100 µM (inactive) | 55 µM (inactive) | > 100 µM (inactive) | > 100 µM (inactive) | > 100 µM (inactive) | – | > 100 µM (inactive) | 97.1 µM (inactive) | > 100 µM (inactive)
CC[C@H]1C=CCC[C@@]2(C[C@@H]3CC[C@@H]4[C@H](C(=O)OCCCCCCCCCCCCCCCC(=O)N(CCCNC(C)=O)C[C@H](CCNC(C)=O)OC(C)=O)[C@]5(CCC[C@@H](C)O5)NC(=[N+]34)N2)O1 | 0.00184 µM (active) | 0.023 µM (active) | 0.109 µM (active) | 0.0557 µM (active) | 0.187 µM (active) | 0.183 µM (active) | 0.0331 µM (active) | 0.129 µM (active) | 0.533 µM (active) | 0.0918 µM (active) | 0.392 µM (active) | 0.494 µM (active) | 0.0847 µM (active) | 0.583 µM (active) | 0.435 µM (active) | 0.249 µM (active) | 0.759 µM (active) | 0.229 µM (active) | 0.0404 µM (active) | 0.0277 µM (active)
